Data set [1] can be described thus: Solubility of regorafenib in water and PBS. It counts as physicochemical. The method, then:
Solubility of regorafenib in water and PBS is negligible. Thus, Tween80 was added in PBS to increase solubility in the dissolution media. Regorafenib in vitro release studies from PGLA/DMSO ISFI were carried out in sink conditions, 2-5 ml PBS pH 7.2 (+Tween80 0.05%) in plastic and glass vessels at 35.5° C. (estimated at 10 mm depth in eye) and 60 rpm, orbit 61 mm in dark.

The nature of data set [2]: Chemical stability of latanoprost in HBSS-buffer. The settings on record: HBSS-buffer pH 7.4, +37° C., 48 h. The class given is physicochemical. The method, then: Chemical stability of latanoprost was studied simultaneously in HBSS-buffer, pH 7.4, using the same protocol but replacing the vitreous with the buffer.
(§1) Hydrolysis of latanoprost was evaluated in buffer and in vitreous with pH adjusted to 7.4.

Data set [3] can be described thus: Hydrolysis of latanoprost to latanoprost acid in porcine vitreous. It counts as in vitro ADME. The method, then: Porcine vitreous was mixed with Hanks' balanced salt solution containing 50 mM Hepes (HBSS-buffer, pH 7.4) at and vitreous mix (200 μl) was pipetted to 96-well plates. The plates were incubated at +37° C. and 5% CO2 with mild shaking for one hour to equilibrate the pH of vitreous into neutral range (pH 7.3-7.5). After incubation, 50 μl of 50 μg/mL latanoprost was added to plates and mixed. The final vitreous/buffer ratio was 1:1 and latanoprost concentration 10 μg/mL Latanoprost was incubated in vitreous at +37° C. and 5% CO2 with mild shaking and samples were collected at time points (0, 1, 2, 4, 6, 24, 29, 48 hours). At each time point the 150 μl of the sample was mixed by vortexing with the 150 μl acetonitrile. The samples were stored at −20° C. until HPLC analysis.
as §1
First hydrolysis of latanoprost was evaluated in buffer and in vitreous with pH adjusted to 7.4 and non pH adjusted.

Data set [4] in a line: Drug release from implant in porcine vitreous vs. PBS. The settings on record: 35.5° C., 35% PLGA9010/60% DMSO/4% b-HPCD, 180 μg latanoprost. The method, then: These tests were carried out to ensure that the latanoprost released from the implant would go through hydrolysis to latanoprost acid, which is the active form of the molecule. Purpose of this study was also study the conversion rate of latanoprost to latanoprost acid. In addition, the release of latanoprost from ReBio test formulations was evaluated in vitreous vs. in PBS.
Next the drug release from implant was also tested in porcine vitreous vs. PBS(=phosphate buffered saline).
Formulation composition in this example was 35% PLGA9010/60% DMSO/4% b-HPCD—180 μg Latanoprost.

In a further data set the test system is rat eyes. Description: Tolerability of intravitreally injected DMSO in rat eyes. The class given is in vivo. To be noted: intravitreal, 3 μl, 60%, 1/10 and 1/100 dilution, monitored two weeks. The method, then:
In order to test the tolerability of DMSO in eye, DMSO (USP, Ph. Eur.) was injected to the rat eyes intravitreally using 34 G needle The injected volume was 3 μl and three concentrations were injected; 60%, 1/10 dilution, 1/100 dilution. Used Ph. Eur. grade DMSO was 0.2 μm Filter sterilized in Class 5 isolator before the injection.
The rats were monitored for two weeks using the following endpoints: • fundus imaging, including blood vessels • cloudiness and other symptoms in the anterior part of the eye • optic nerve head • state of the vasculature in the posterior eye segment (FAG) • ERG • intraocular pressure • retinal thickness with OCT • histology (in the end)

As for `CNC(=O)c1cc(Oc2ccc(NC(=O)Nc3ccc(Cl)c(C(F)(F)F)c3)c(F)c2)ccn1` [regorafenib, Regorafenib], in data set [1], the “solubility in water and PBS” value is recorded as “negligible”.
In the case of `CC(C)OC(=O)CCC/C=C\C[C@@H]1[C@@H](CC[C@@H](O)CCc2ccccc2)[C@H](O)C[C@@H]1O` [latanoprost, Latanoprost], the “latanoprost acid formation in mere buffer” value in data set [2] is “No latanoprost acid was formed”. The “amount of latanoprost acid in vitreous over time” value in data set [3] (porcine vitreous, 48 h experiment) is on record as “steadily increased”. For the same compound, in data set [3] (porcine vitreous/HBSS buffer 1:1, pH adjusted to 7.4, +37° C., latanoprost 10 μg/mL, 48 h), the “rate constant of latanoprost acid formation in vitreous (zero-order kinetics)” value came to 0.111 µg/h. The “conversion of released latanoprost to acid form in PBS” value in data set [4] is given as “did not change to its acid form”.
`C[S+](C)[O-]` [DMSO, dimethylsulfoxide]: the “adverse effects in eye” value in the data set on rat eyes was “No adverse effect”.

The values above are taken from patent US20240226053A9, “Compositions for ophthalmic care” (ReBio Technologies Oy, priority 2021, published 2024).
